Source: BigSolDB 2.1

Molecule C[N+](C)(C)CCO.[Cl-] has a solubility (mole fraction) (in ethanol, 269.8 K) of 0.017, a solubility (mole fraction) (in ethanol, 276.4 K) of 0.027 and a solubility (mole fraction) (in ethanol, 281.8 K) of 0.038. It also gave a solubility (mole fraction) (in ethanol, 287.2 K) of 0.054, a solubility (mole fraction) (in ethanol, 290.5 K) of 0.066 and a solubility (mole fraction) (in ethanol, 292.4 K) of 0.072. It also gave a solubility (mole fraction) (in ethanol, 296.7 K) of 0.082, a solubility (mole fraction) (in ethanol, 300.5 K) of 0.089 and a solubility (mole fraction) (in ethanol, 305.7 K) of 0.098. It also gave a solubility (mole fraction) (in ethanol, 308.4 K) of 0.109, a solubility (mole fraction) (in ethanol, 315.3 K) of 0.125 and a solubility (mole fraction) (in ethanol, 321.6 K) of 0.138. It also gave a solubility (mole fraction) (in n-butanol, 314.6 K) of 0.031, a solubility (mole fraction) (in n-butanol, 321.2 K) of 0.049 and a solubility (mole fraction) (in n-butanol, 328.6 K) of 0.068. For the same molecule, the solubility (mole fraction) (in n-butanol, 340.8 K) was 0.086, the solubility (mole fraction) (in n-butanol, 346.4 K) was 0.109 and the solubility (mole fraction) (in n-butanol, 349.4 K) was 0.131. For the same molecule, the solubility (mole fraction) (in n-butanol, 352.9 K) was 0.147, the solubility (mole fraction) (in n-propanol, 288.9 K) was 0.015 and the solubility (mole fraction) (in n-propanol, 295.7 K) was 0.023. For the same molecule, the solubility (mole fraction) (in n-propanol, 302.3 K) was 0.039, the solubility (mole fraction) (in n-propanol, 308.7 K) was 0.05 and the solubility (mole fraction) (in n-propanol, 309.6 K) was 0.059. For the same molecule, the solubility (mole fraction) (in n-propanol, 316.5 K) was 0.073, the solubility (mole fraction) (in n-propanol, 323.2 K) was 0.086 and the solubility (mole fraction) (in n-propanol, 330.7 K) was 0.108. It also gave a solubility (mole fraction) (in n-propanol, 335.3 K) of 0.129 and a solubility (mole fraction) (in n-propanol, 338 K) of 0.153.

With C[N+](C)(C)CCOC(=O)CCC(=O)O.[Cl-] the solubility (mole fraction) (in ethanol, 299 K) was 0.008, the solubility (mole fraction) (in ethanol, 300.8 K) was 0.01 and the solubility (mole fraction) (in ethanol, 305.5 K) was 0.015. The solubility (mole fraction) (in ethanol, 310.9 K) was 0.02, the solubility (mole fraction) (in ethanol, 313.1 K) was 0.026 and the solubility (mole fraction) (in ethanol, 315.6 K) was 0.028. It also gave a solubility (mole fraction) (in ethanol, 320.5 K) of 0.038, a solubility (mole fraction) (in ethanol, 322 K) of 0.044 and a solubility (mole fraction) (in n-butanol, 300.4 K) of 0.003. For the same molecule, the solubility (mole fraction) (in n-butanol, 308.8 K) was 0.004, the solubility (mole fraction) (in n-butanol, 312.7 K) was 0.006 and the solubility (mole fraction) (in n-butanol, 318.8 K) was 0.008. The solubility (mole fraction) (in n-butanol, 322.4 K) was 0.009, the solubility (mole fraction) (in n-butanol, 326.4 K) was 0.012 and the solubility (mole fraction) (in n-butanol, 329.8 K) was 0.014. For the same molecule, the solubility (mole fraction) (in n-butanol, 338.8 K) was 0.016, the solubility (mole fraction) (in n-propanol, 299.2 K) was 0.006 and the solubility (mole fraction) (in n-propanol, 305.5 K) was 0.008. It also gave a solubility (mole fraction) (in n-propanol, 310.9 K) of 0.01, a solubility (mole fraction) (in n-propanol, 318.7 K) of 0.013 and a solubility (mole fraction) (in n-propanol, 325.2 K) of 0.02. The solubility (mole fraction) (in n-propanol, 328.9 K) was 0.025, the solubility (mole fraction) (in n-propanol, 333.2 K) was 0.031 and the solubility (mole fraction) (in n-propanol, 336.1 K) was 0.039.

Work on C[N+](C)(C)CCOC(=O)CCCC(=O)O.[Cl-] yielded a solubility (mole fraction) (in ethanol, 300.2 K) of 0.006, a solubility (mole fraction) (in ethanol, 310.6 K) of 0.008 and a solubility (mole fraction) (in ethanol, 316.8 K) of 0.01. The solubility (mole fraction) (in ethanol, 318.5 K) was 0.012, the solubility (mole fraction) (in ethanol, 322.1 K) was 0.017 and the solubility (mole fraction) (in ethanol, 325.4 K) was 0.023. It also gave a solubility (mole fraction) (in ethanol, 333.2 K) of 0.033, a solubility (mole fraction) (in ethanol, 335.8 K) of 0.039 and a solubility (mole fraction) (in ethanol, 338.1 K) of 0.043. The solubility (mole fraction) (in ethanol, 339.4 K) was 0.055, the solubility (mole fraction) (in n-butanol, 304.8 K) was 0.001 and the solubility (mole fraction) (in n-butanol, 318.7 K) was 0.0019. For the same molecule, the solubility (mole fraction) (in n-butanol, 323.8 K) was 0.0022, the solubility (mole fraction) (in n-butanol, 327.5 K) was 0.0025 and the solubility (mole fraction) (in n-butanol, 330.4 K) was 0.0029. For the same molecule, the solubility (mole fraction) (in n-butanol, 335.1 K) was 0.0035, the solubility (mole fraction) (in n-butanol, 341 K) was 0.004 and the solubility (mole fraction) (in n-propanol, 305.4 K) was 0.002. It also gave a solubility (mole fraction) (in n-propanol, 306.6 K) of 0.003, a solubility (mole fraction) (in n-propanol, 309.4 K) of 0.003 and a solubility (mole fraction) (in n-propanol, 315.5 K) of 0.004. The solubility (mole fraction) (in n-propanol, 319.9 K) was 0.005, the solubility (mole fraction) (in n-propanol, 324.6 K) was 0.008 and the solubility (mole fraction) (in n-propanol, 331.2 K) was 0.011. For the same molecule, the solubility (mole fraction) (in n-propanol, 335.1 K) was 0.013 and the solubility (mole fraction) (in n-propanol, 338.5 K) was 0.017.

In the case of CC(=O)[O-].C[N+](C)(C)CCO, the solubility (mole fraction) (in ethanol, 259.8 K) is reported as 0.049, the solubility (mole fraction) (in ethanol, 261.8 K) is reported as 0.067 and the solubility (mole fraction) (in ethanol, 263.9 K) is reported as 0.09. For the same molecule, the solubility (mole fraction) (in ethanol, 265.7 K) was 0.112, the solubility (mole fraction) (in ethanol, 267.1 K) was 0.13 and the solubility (mole fraction) (in ethanol, 267.8 K) was 0.143. The solubility (mole fraction) (in ethanol, 271.7 K) was 0.174, the solubility (mole fraction) (in ethanol, 272.1 K) was 0.184 and the solubility (mole fraction) (in ethanol, 276.6 K) was 0.228. For the same molecule, the solubility (mole fraction) (in ethanol, 278.5 K) was 0.252, the solubility (mole fraction) (in ethanol, 282.8 K) was 0.29 and the solubility (mole fraction) (in ethanol, 286.1 K) was 0.319. For the same molecule, the solubility (mole fraction) (in n-butanol, 268.2 K) was 0.023, the solubility (mole fraction) (in n-butanol, 273 K) was 0.048 and the solubility (mole fraction) (in n-butanol, 276.9 K) was 0.074. For the same molecule, the solubility (mole fraction) (in n-butanol, 279.9 K) was 0.102, the solubility (mole fraction) (in n-butanol, 281.8 K) was 0.136 and the solubility (mole fraction) (in n-butanol, 284.2 K) was 0.172. It also gave a solubility (mole fraction) (in n-butanol, 287.7 K) of 0.209, a solubility (mole fraction) (in n-butanol, 290.4 K) of 0.233 and a solubility (mole fraction) (in n-butanol, 295.4 K) of 0.293. For the same molecule, the solubility (mole fraction) (in n-butanol, 297.7 K) was 0.317, the solubility (mole fraction) (in n-propanol, 263.8 K) was 0.0191 and the solubility (mole fraction) (in n-propanol, 266.9 K) was 0.0394. For the same molecule, the solubility (mole fraction) (in n-propanol, 270.3 K) was 0.062, the solubility (mole fraction) (in n-propanol, 273.1 K) was 0.0844 and the solubility (mole fraction) (in n-propanol, 274.1 K) was 0.11. For the same molecule, the solubility (mole fraction) (in n-propanol, 276 K) was 0.144, the solubility (mole fraction) (in n-propanol, 277.7 K) was 0.174 and the solubility (mole fraction) (in n-propanol, 279.9 K) was 0.211. For the same molecule, the solubility (mole fraction) (in n-propanol, 280.9 K) was 0.234, the solubility (mole fraction) (in n-propanol, 282.7 K) was 0.269 and the solubility (mole fraction) (in n-propanol, 285.2 K) was 0.316.
